Source: article PMC10777851, “SMT-738: a novel small-molecule inhibitor of bacterial lipoprotein transport targeting Enterobacteriaceae” (Antimicrobial Agents and Chemotherapy, 2023)
Converted amounts (≈) assume the structure as drawn. “And” between values parts separate entries of the source, which are not always exact repeats. Equal entries are not always repeated.

Experiments:
E. coli = experiment: MIC by broth microdilution (CLSI) against E. coli; format: cell-based, Escherichia coli
Procedure: (§1) MIC tests were performed by broth microdilution in-line with CLSI susceptibility testing standards ([20], [21]) either in-house or at IHMA (Europe and USA) or JMI Laboratories using cation-adjusted Mueller Hinton Broth.

K. pneumoniae = experiment: MIC by broth microdilution (CLSI) against K. pneumoniae; format: cell-based, Klebsiella pneumoniae
Procedure: as §1

[1] = test system: members of the Enterobacterales order; experiment: MIC, panel of 100 bacterial species: Enterobacterales; format: cell-based; conditions: apart from the named exceptions
Procedure: as §1

E. coli NCTC 13441 = experiment: Time-kill experiment, E. coli; format: cell-based, Escherichia coli; conditions: 2× and 4× the MIC
Procedure: An overnight culture of the test strain was diluted to a viable cell density of ~10^6 CFU/mL and dispensed into 96-well plates containing dilutions of SMT-738 to yield the specified multiple of the MIC. Plates were sealed with a breathable seal and incubated under shaking conditions in a humid incubator at 37°C. At specific timepoints (t = 0, 1, 2, 4, 6, 8, and 24 h), samples were taken and plated onto MH agar plates, and colonies enumerated after overnight growth at 37°C. Viable cell numbers as log10 (CFU/mL) were then plotted against time. Where no colonies were detected, the limit of detection was 100 CFU/mL. Compound activity was scored as bactericidal if the viable cell count decreased by at least 3 log10 from the initial count.

[2] = test system: KPM (K. pneumoniae NCTC 13438); experiment: Frequency of resistance determination, K. pneumoniae; format: cell-based, Klebsiella pneumoniae; conditions: for LoD Range: experiments with no colonies observed; for FoR Range: experiments with colonies observed
Procedure: (§2) The FoR of bacterial strains to test compounds was determined by plating aliquots of overnight cultures onto MH-agar plates containing dilutions of the test compound at various multiples of reference MIC as previously determined. Total viable counts of the overnight cultures were determined by spotting 10–20 µL of decimal dilutions in 1× phosphate-buffered saline (PBS) onto non-selective agar. Assay plates were incubated for up to 48 h with colonies being enumerated every 24 h. FoR was determined by dividing the number of colonies observed by the total number of viable cells plated. Representative colonies were then picked and streaked onto selective agar to confirm resistance and obtain resistant isolates. Isolates growing on selective agar were then used to initiate overnight cultures, bacteria pelleted by centrifugation, supernatant removed, and pellets stored at −80°C for subsequent DNA extraction and whole-genome sequencing. Genomic DNA was extracted using the DNeasy Blood and Tissue Kit (Qiagen), quantified using the Quant-iT TM PicoGreen TM dsDNA Assay Kit (Thermo Fisher Scientific), and normalized to 0.2 ng/µL in nuclease-free water. Library preparation and barcode addition were with the Nextera XT DNA Library Prep Kit (Illumina). KAPA Pure beads (Roche) were used for DNA purification. Samples were pooled to achieve 100× coverage of each sample and run on an Illumina Nextseq 500/550 Mid Output Kit v2.5 (150 cycles) (Illumina).

[3] = test system: KPM (K. pneumoniae NCTC 13438) LolC and LolE mutants; experiment: MIC fold change of resistant LolC/LolE mutants, KPM; format: cell-based, Klebsiella pneumoniae
Procedure: as §1, §2

HEK293 = experiment: Cytotoxicity (CellTiter-Glo), HEK293; format: cell-based; conditions: HEK293, 24 h
Procedure: HepG2 (ATCC, HB-8065) and HEK293 (ATCC, CRL-1573) were sourced from ATCC. For the cytotoxicity assay, cells were seeded onto 96-well plates, which were then incubated for 24 h in a 5% CO2 incubator at 37°C. On the day of the assay, 10-point, twofold serial dilutions of test compound were prepared in assay media (MEM + 10% FBS) in separate 96-well plates. Assay plates were removed from the incubator, and the media from all of the wells were removed, taking care not to disturb the cell layer. Compound-containing assay media or control media were added to the relevant wells. Assay plates were returned to the 5% CO2 incubator at 37°C for 24 h. CellTiter-Glo reagent (Promega, G7570) was used to determine the viability of the cells.

HepG2 cells = experiment: Seahorse mitochondrial functional assay; format: cell-based; conditions: top concentration of 500 µM (= 196.85 µg/mL)
Procedure: The Seahorse mitochondrial functional assay was performed by Cyprotex, UK. HepG2 cells were dosed with test compound, and in real time, the extracellular oxygen levels and pH were measured using the Xfe96 flux analyzer (Seahorse Biosciences). Simultaneously, oxygen consumption rate and extracellular acidification rate were measured to determine its effect on oxidative phosphorylation.

Protein binding, mouse = format: in vitro ADME
Protein binding, human = format: in vitro ADME
K. pneumoniae ATCC 43816 = experiment: Murine lung infection model (neutropenic); format: in vivo, male CD-1 mice; conditions: 20 mg/kg per dose QD or BID, 60-min IV infusion, 24 h post-infection
Procedure: Male JVC-cannulated CD-1 mice were rendered neutropenic using cyclophosphamide on days −4 and −1 (150 and 100 mg/kg, respectively). Mice were infected intranasally with K. pneumoniae ATCC 43816, and SMT-738 treatment was initiated at QD, 2 h post-infection; BID, 2 and 5 h post-infection. The pre-treatment control animals were euthanized at 2 h post-infection. All other study animals were euthanized at 24 h post-infection. Lungs were dissected and homogenized and quantitatively cultured, serially diluted, and plated on CLED agar, and CFU were quantified following overnight incubation at 30°C. A Kruskal-Wallis statistical test was performed.

[4] = 15 clinical MDR NDM isolates (NDM-1, NDM-4, NDM-5) from India (2018)
[5] = 100 MDR clinical isolates incl. ESBL and CRE

Question: What does the source list for Cc1cnccc1-c1[nH]c(N)nc1-c1ccc2c(c1)N(C(=O)C(C)(C)N)CCO2 [SMT-738]?
Answer: MIC Range E. coli (NDM) (E. coli; [4]): 0.25 to 1 µg/mL; MIC50 E. coli (E. coli; [5]): 0.5 µg/mL (≈ 1.27 µM); MIC90 E. coli (E. coli; [5]): 1 µg/mL (≈ 2.55 µM); MIC range E. coli (E. coli; [5]): 0.12 to 4 µg/mL; MIC (E. coli; E. coli BAA 2469 (NDM-1 positive)): 0.5 µg/mL (≈ 1.27 µM); MIC (20% HS) (E. coli; E. coli IHMA 2015405, 20% human serum): 0.25 µg/mL (≈ 0.637 µM); MIC (50% HS) (E. coli; E. coli IHMA 2015405, 50% human serum): 0.25 µg/mL (≈ 0.637 µM); MIC (no HS) (E. coli; E. coli IHMA 2015405, no human serum): 0.5 µg/mL (≈ 1.27 µM); MIC (20% HS) (E. coli; E. coli IHMA 2051414, 20% human serum): 0.5 µg/mL (≈ 1.27 µM); MIC (50% HS) (E. coli; E. coli IHMA 2051414, 50% human serum): 0.5 µg/mL (≈ 1.27 µM); MIC (no HS) (E. coli; E. coli IHMA 2051414, no human serum): 0.5 µg/mL (≈ 1.27 µM); MIC (E. coli; E. coli NCTC 13441 (UPEC, MDR, CTX-M-15 ESBL)): 0.39 µM and 0.15 µg/mL; MIC (E. coli; E. coli UTI89): 0.5 µg/mL (≈ 1.27 µM); MICref (E. coli; UPEC13441, reference MIC of the FoR experiments): 0.3 µg/mL; MIC Range K. pneumoniae (NDM) (K. pneumoniae; [4]): 0.5 to 1 µg/mL; MIC50 K. pneumoniae (K. pneumoniae; [5]): 1 µg/mL (≈ 2.55 µM); MIC90 K. pneumoniae (K. pneumoniae; [5]): 2 µg/mL (≈ 5.1 µM); MIC range K. pneumoniae (K. pneumoniae; [5]): 0.25 to 8 µg/mL; MIC (K. pneumoniae; K. pneumoniae ATCC 43816): 0.5 µg/mL (≈ 1.27 µM); MIC (20% HS) (K. pneumoniae; K. pneumoniae IHMA 1769429, 20% human serum): 1 µg/mL (≈ 2.55 µM); MIC (50% HS) (K. pneumoniae; K. pneumoniae IHMA 1769429, 50% human serum): 2 µg/mL (≈ 5.1 µM); MIC (no HS) (K. pneumoniae; K. pneumoniae IHMA 1769429, no human serum): 2 µg/mL (≈ 5.1 µM); MIC (20% HS) (K. pneumoniae; K. pneumoniae IHMA 1770556, 20% human serum): 0.5 µg/mL (≈ 1.27 µM); MIC (50% HS) (K. pneumoniae; K. pneumoniae IHMA 1770556, 50% human serum): 1 µg/mL (≈ 2.55 µM); MIC (no HS) (K. pneumoniae; K. pneumoniae IHMA 1770556, no human serum): 1 µg/mL (≈ 2.55 µM); MIC (K. pneumoniae; K. pneumoniae NCTC 13438 (MDR, Class A KPC)): 1.56 µM and 0.61 µg/mL; MICref (K. pneumoniae; Kpm13438, reference MIC of the FoR experiments): 3.13 µM and 1.22 µg/mL; MIC [1]: 0.12 to 2 µg/mL; re-growth over the 24-h timepoint (E. coli NCTC 13441): no observed re-growth; timepoint at which bactericidal activity was displayed (E. coli NCTC 13441): 2 h; reduction of viability (E. coli NCTC 13441; 2-h timepoint): > 3 log10 CFU/mL; LoD Range ([2]; 4× MICref, 24 h): < 2.26E-09; FoR Range ([2]; 4× MICref, 48 h): 1.50E-09; LoD Range ([2]; 4× MICref, 48 h): < 2.26E-09; LoD Range ([2]; 8× MICref, 24 h): < 2.26E-09; FoR Range ([2]; 8× MICref, 48 h): 3.75E-10; LoD Range ([2]; 8× MICref, 48 h): < 2.26E-09; Frequency of resistance (FoR) ([2]; single-step selection at 4× and 8× the MIC, after 24 and 48 h): ≤ 10^−9; MIC fold change increase ([3]; LolC E198K mutant): E198K (64×); MIC fold change increase ([3]; LolE L60P mutant): L60P (16×); MIC fold change increase ([3]; LolE M261R mutant): M261R (>64×); IC50 (HEK293): > 200 µM; cytotoxicity IC50 (HEK293): > 78.74 µg/mL; mitotoxicity (HepG2 cells): No toxicity was observed; protein binding (Protein binding, mouse): 66.9%; protein binding (Protein binding, human): 62.7%; reduction of the bacterial burden below pre-treatment stasis level (K. pneumoniae ATCC 43816): 1–2 log10
